≈ marks a conversion by molar mass, not a printed value.

Common to all, as to test: MIC by agar-dilution, standard in vitro test system
Holding throughout (assay type): cell-based
Holding throughout (conditions): IsoSensitest agar, inoculum 10^4 CFU/spot, 37° C. for 24 hours

Experiment [1] has as its system Coagulase Negative Staphylococcus MR (methicillin resistant). Here is the method: (§1) The following results were obtained on a standard in vitro test system. The activity is described in terms of the minimum inhibitory concentration (MIC) determined by the agar-dilution technique with an inoculum size of 10^4 CFU/spot.
(§2) The organisms were tested on a standard semi-defined susceptability test medium (IsoSensitest agar), using an inoculum of 10^4 CFU/spot and an incubation temperature of 37° C. for 24 hours.

In the next experiment the test system is Bacillus subtilis. How it is done:
(§3) The following results were obtained on a standard in vitro test system. The activity is described in terms of the minimum inhibitory concentration (MIC) determined by the agar-dilution technique with an inoculum size of 10^4 CFU/spot. The organisms were tested on a standard semi-defined susceptability test medium (IsoSensitest agar), using an inoculum of 10^4 CFU/spot and an incubation temperature of 37° C. for 24 hours.

Experiment [2] deals with Coagulase Negative Staphylococcus MS. How it is done:
as §3

Experiment [3] concerns Staphylococcus aureus Oxford. Here is the method:
as §3

The next experiment deals with Enterococcus faecalis. Here is the method:
as §3

The subject of experiment [4] is Streptococcus pyogenes C203. Here is the method: as §3
Experiment [5] concerns Staphylococcus aureus MRQR (methicillin resistant quinolone resistant). How it is done: as §1, §2
MRQR=methicillin resistant quinolone resistant

The subject of experiment [6] is Staphylococcus aureus Novb. Res (Novobiocin resistant). How it is done: as §1, §2
Novb. Res=Novobiocin resistant

Broadly, the MIC is the least concentration at which growth counts as inhibited. Take `CC(=O)NC[C@H]1CN(c2ccc(-n3cnc(C(=O)Nc4nccs4)c3)c(F)c2)C(=O)O1` [Example 43, N-[(5S)-3-(3-Fluoro-4-(4-(thiazol-2-ylaminocarbonyl)imidazol-1-yl)phenyl)-2-oxooxazolidin-5-ylmethyl]acetamide]: the MIC in experiment [1] is 0.25 µg/mL (≈ 0.562 µM); in the experiment with Bacillus subtilis, 0.25 µg/mL (≈ 0.562 µM); in experiment [2], 0.06 µg/mL (≈ 0.135 µM); in experiment [3], 0.125 µg/mL (≈ 0.281 µM); in the experiment with Enterococcus faecalis it was 0.5 µg/mL (≈ 1.12 µM); in experiment [4], 0.125 µg/mL (≈ 0.281 µM). Moreover, the results for the MIC in experiment [5] and in experiment [6] were 1 µg/mL (≈ 2.25 µM) and 0.25 µg/mL (≈ 0.562 µM), respectively.

These data come from US6495551B1, “Substituted phenyloxazolidinones and their use as antibiotics” (priority 1997, dated 2002).
